For one compound, IC50 results are on record in paper PMC9995120, “Drug specificity and affinity are encoded in the probability of cryptic pocket opening in myosin motor domains” (eLife, 2023).

Structures are written as SMILES.

Assay [1] has as its target T1, β-cardiac myosin (Homo sapiens, UniProt P12883).
T1 construct: gene MYH7; with actin (porcine ventricles); endogenous C2C12 light chains
The assay is described as follows: NADH-linked actin-activated ATPase assay with purified recombinant S1. Type of assay: biochemical. The text has this:
NADH-linked actin-activated ATPase assay with purified recombinant S1 on β-cardiac myosin | we measured the IC50 value for β-cardiac myosin S1.

For assay [2], the target named is T2, Myh7b (Homo sapiens, UniProt A7E2Y1).
T2 construct: with actin (porcine ventricles); endogenous C2C12 light chains
T2 sequence (A7E2Y1 43-892): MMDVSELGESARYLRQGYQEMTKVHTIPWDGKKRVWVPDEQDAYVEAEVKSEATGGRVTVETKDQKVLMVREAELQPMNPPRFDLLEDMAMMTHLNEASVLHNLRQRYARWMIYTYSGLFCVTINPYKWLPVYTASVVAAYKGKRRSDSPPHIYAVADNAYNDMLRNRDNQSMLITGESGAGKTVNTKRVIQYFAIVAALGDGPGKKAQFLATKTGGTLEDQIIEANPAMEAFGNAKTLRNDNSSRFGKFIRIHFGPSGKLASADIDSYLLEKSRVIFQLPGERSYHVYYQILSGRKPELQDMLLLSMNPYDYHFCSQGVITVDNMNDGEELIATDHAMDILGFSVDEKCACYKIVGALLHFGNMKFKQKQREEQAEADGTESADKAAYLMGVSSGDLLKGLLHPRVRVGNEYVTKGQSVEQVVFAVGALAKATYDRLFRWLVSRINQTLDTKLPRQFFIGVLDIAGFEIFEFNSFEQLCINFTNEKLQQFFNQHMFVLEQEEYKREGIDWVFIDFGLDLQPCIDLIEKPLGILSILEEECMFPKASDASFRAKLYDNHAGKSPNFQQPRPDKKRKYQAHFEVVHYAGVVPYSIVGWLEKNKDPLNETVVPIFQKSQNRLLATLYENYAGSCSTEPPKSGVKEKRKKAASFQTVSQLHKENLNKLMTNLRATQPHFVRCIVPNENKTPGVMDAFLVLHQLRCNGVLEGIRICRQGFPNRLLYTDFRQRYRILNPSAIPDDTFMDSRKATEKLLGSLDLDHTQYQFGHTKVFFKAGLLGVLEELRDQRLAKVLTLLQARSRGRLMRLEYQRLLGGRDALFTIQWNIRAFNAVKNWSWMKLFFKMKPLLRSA
Described as above. The format is biochemical.

T1 sequence (P12883 1-842): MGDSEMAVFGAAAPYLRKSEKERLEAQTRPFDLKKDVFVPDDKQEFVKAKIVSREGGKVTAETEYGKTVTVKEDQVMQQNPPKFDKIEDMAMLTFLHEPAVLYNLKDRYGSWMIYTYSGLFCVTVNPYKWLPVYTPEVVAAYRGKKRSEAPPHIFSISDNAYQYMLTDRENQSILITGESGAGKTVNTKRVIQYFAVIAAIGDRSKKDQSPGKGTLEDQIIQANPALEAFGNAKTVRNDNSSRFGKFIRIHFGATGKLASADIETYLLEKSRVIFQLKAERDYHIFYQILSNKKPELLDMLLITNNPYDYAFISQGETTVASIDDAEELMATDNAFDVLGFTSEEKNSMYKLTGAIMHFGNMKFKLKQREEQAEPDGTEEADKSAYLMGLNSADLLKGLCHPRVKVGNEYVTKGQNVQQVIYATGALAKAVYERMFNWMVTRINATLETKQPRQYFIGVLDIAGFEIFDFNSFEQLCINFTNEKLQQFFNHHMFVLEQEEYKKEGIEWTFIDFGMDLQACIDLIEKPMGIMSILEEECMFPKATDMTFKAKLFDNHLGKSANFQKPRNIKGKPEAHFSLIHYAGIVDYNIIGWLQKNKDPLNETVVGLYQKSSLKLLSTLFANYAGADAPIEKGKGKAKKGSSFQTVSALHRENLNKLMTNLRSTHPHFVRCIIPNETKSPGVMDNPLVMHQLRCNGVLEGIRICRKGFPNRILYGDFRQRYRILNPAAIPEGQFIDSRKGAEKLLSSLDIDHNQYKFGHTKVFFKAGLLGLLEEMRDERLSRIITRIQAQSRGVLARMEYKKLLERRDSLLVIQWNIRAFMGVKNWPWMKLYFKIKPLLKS

For `Cc1ccc2c(c1)C(=O)[C@]1(O)CCN(c3ccccc3)C1=N2` [Blebbistatin], the figures for the IC50 in assay [1] and in assay [2] were 1.12 ± 0.29 µM and 0.36 ± 0.08 µM, respectively.
